Marks after values point to notes of the source that are not given here.
Assays:
[1] = Dynamic light scattering: LNP particle size and PDI; assay type: physicochemical; conditions: for PDI N/P:6 / Size (nm) N/P:6: LNP
In short: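 The LNPs were made by microfluidic mixing of the lipids in ethanol with mRNA in pH 4.0 citrate, then dialyzed into PBS pH 7.4. They were diluted in PBS pH 7.4, and particle size and PDI were measured by dynamic light scattering.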

mouse organs = experiment: In vivo activity screening in mice: organ mean total flux (p/s) of luciferase activity after injection of F2 LNP pools (Table 6, FIG. 7A-7C); conditions: luciferase mRNA
In short: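 Luciferase output per organ is reported as mean total flux (p/s) from IVIS regions of interest. Organs were collected from perfused C57BL/6J mice and imaged 10-15 min after s.c. D-luciferin, 4-6 h after i.v. dosing. Dosing was 0.25-3 mg/kg luciferase mRNA in F2 LNP pools.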

[2] = Plate-based fluorescence (RiboGreen) assay: nucleic acid cargo content and encapsulation efficiency of LNPs; assay type: physicochemical; conditions: for EE (%) N/P:6: LNP
In short: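 LNPs made by microfluidic mixing of ethanolic lipids with mRNA in pH 4.0 citrate, dialyzed into PBS pH 7.4. Cargo quantified by RiboGreen fluorescence against a standard curve: Triton-lysed samples give total, TE-only samples give free cargo; encapsulation efficiency from their ratio.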

[3] = LNP compositions for Formulation F2 Study
[4] = LNP compositions for in vivo mouse study, four formulations (F1-F4) pooled, or pools of four compounds

CCCCC/C=C\CCOC(=O)CCCCC(=O)OCC(COC(=O)CCCCC(=O)OCC/C=C\CCCCC)(COC(=O)CCC(CCCCCC)OC(=O)NCCN1CCCC1)COC(=O)CC12CC3CC(CC(C3)C1)C2 (stereo not drawn) [Compound 14, O6-[2-[[2-(1-adamantyl)acetyl]oxymethyl]-2-[[6-[(Z)-non-3-enoxy]-6-oxo-hexanoyl]oxymethyl]-3-[4-(2-pyrrolidin-1-ylethylcarbamoyloxy)decanoyloxy]propyl]O1-[(Z)-non-3-enyl]hexanedioate]
PDI [1, 3]: 0.178 | Particle Size (nm) [1, 3]: 107.6 nm | Particle Size (nm) ([1]; LNP compositions for in vivo mouse study, four formulations (F1-F4) of the lipid compound pooled, or pools of four compounds (sixteen compositions)): 82.9 nm | PDI [1, 4]: 0.106 | PDI N/P:6 ([1]; Formulation F1, N/P 6): 0.06 | Size (nm) N/P:6 ([1]; Formulation F1, N/P 6): 78 ± 2 nm | PDI N/P:6 ([1]; Formulation F2, N/P 6): 0.07 | Size (nm) N/P:6 ([1]; Formulation F2, N/P 6): 90 ± 5 nm | PDI N/P:6 ([1]; Formulation F3, N/P 6): 0.14 | Size (nm) N/P:6 ([1]; Formulation F3, N/P 6): 83 ± 1 nm | PDI N/P:6 ([1]; Formulation F4, N/P 6): 0.09 | Size (nm) N/P:6 ([1]; Formulation F4, N/P 6): 68 ± 3 nm | Organ Mean Total Flux Femur (mouse organs; Mouse 1, dose 0.3 mg/kg): 9.3 p/s (×10^6) | Organ Mean Total Flux Heart (mouse organs; Mouse 1, dose 0.3 mg/kg): 1.8 p/s (×10^6) | Organ Mean Total Flux Kidney (mouse organs; Mouse 1, dose 0.3 mg/kg): 2.8 p/s (×10^6) | Organ Mean Total Flux Liver (mouse organs; Mouse 1, dose 0.3 mg/kg): 3910 p/s (×10^6) | Organ Mean Total Flux Lung (mouse organs; Mouse 1, dose 0.3 mg/kg): 31.9 p/s (×10^6) | Organ Mean Total Flux Muscle (mouse organs; Mouse 1, dose 0.3 mg/kg): 9.5 p/s (×10^6) | Organ Mean Total Flux Pancreas (mouse organs; Mouse 1, dose 0.3 mg/kg): 14.9 p/s (×10^6) | Organ Mean Total Flux Spleen (mouse organs; Mouse 1, dose 0.3 mg/kg): 31.5 p/s (×10^6) | Organ Mean Total Flux Femur (mouse organs; Mouse 2, dose 1.0 mg/kg): 62.6 p/s (×10^6) | Organ Mean Total Flux Heart (mouse organs; Mouse 2, dose 1.0 mg/kg): 5.9 p/s (×10^6) | Organ Mean Total Flux Kidney (mouse organs; Mouse 2, dose 1.0 mg/kg): 7.0 p/s (×10^6) | Organ Mean Total Flux Liver (mouse organs; Mouse 2, dose 1.0 mg/kg): 2883 p/s (×10^6) | Organ Mean Total Flux Lung (mouse organs; Mouse 2, dose 1.0 mg/kg): 96.9 p/s (×10^6) | Organ Mean Total Flux Muscle (mouse organs; Mouse 2, dose 1.0 mg/kg): 144.9 p/s (×10^6) | Organ Mean Total Flux Pancreas (mouse organs; Mouse 2, dose 1.0 mg/kg): 32.1 p/s (×10^6) | Organ Mean Total Flux Spleen (mouse organs; Mouse 2, dose 1.0 mg/kg): 107.0 p/s (×10^6) | Organ Mean Total Flux Femur (mouse organs; Mouse 3, dose 1.0 mg/kg): 41.8 p/s (×10^6) | Organ Mean Total Flux Heart (mouse organs; Mouse 3, dose 1.0 mg/kg): 8.6 p/s (×10^6) | Organ Mean Total Flux Kidney (mouse organs; Mouse 3, dose 1.0 mg/kg): 7.7 p/s (×10^6) | Organ Mean Total Flux Liver (mouse organs; Mouse 3, dose 1.0 mg/kg): 4307 p/s (×10^6) | Organ Mean Total Flux Lung (mouse organs; Mouse 3, dose 1.0 mg/kg): 49.2 p/s (×10^6) | Organ Mean Total Flux Muscle (mouse organs; Mouse 3, dose 1.0 mg/kg): 193.7 p/s (×10^6) | Organ Mean Total Flux Pancreas (mouse organs; Mouse 3, dose 1.0 mg/kg): 23.4 p/s (×10^6) | Organ Mean Total Flux Spleen (mouse organs; Mouse 3, dose 1.0 mg/kg): 123.8 p/s (×10^6) | Organ Mean Total Flux Femur (mouse organs; Mouse 5, dose 0.5 mg/kg): 11.9 p/s (×10^6) | Organ Mean Total Flux Heart (mouse organs; Mouse 5, dose 0.5 mg/kg): 4.4 p/s (×10^6) | Organ Mean Total Flux Kidney (mouse organs; Mouse 5, dose 0.5 mg/kg): 1.8 p/s (×10^6) | Organ Mean Total Flux Liver (mouse organs; Mouse 5, dose 0.5 mg/kg): 1303 p/s (×10^6) | Organ Mean Total Flux Lung (mouse organs; Mouse 5, dose 0.5 mg/kg): 18.9 p/s (×10^6) | Organ Mean Total Flux Muscle (mouse organs; Mouse 5, dose 0.5 mg/kg): 34.1 p/s (×10^6) | Organ Mean Total Flux Pancreas (mouse organs; Mouse 5, dose 0.5 mg/kg): 1.9 p/s (×10^6) | Organ Mean Total Flux Spleen (mouse organs; Mouse 5, dose 0.5 mg/kg): 20.8 p/s (×10^6) | Organ Mean Total Flux Femur (mouse organs; Mouse 6, dose 0.5 mg/kg): 9.1 p/s (×10^6) | Organ Mean Total Flux Heart (mouse organs; Mouse 6, dose 0.5 mg/kg): 1.6 p/s (×10^6) | Organ Mean Total Flux Kidney (mouse organs; Mouse 6, dose 0.5 mg/kg): 3.2 p/s (×10^6) | Organ Mean Total Flux Liver (mouse organs; Mouse 6, dose 0.5 mg/kg): 676.3 p/s (×10^6) | Organ Mean Total Flux Lung (mouse organs; Mouse 6, dose 0.5 mg/kg): 17.3 p/s (×10^6) | Organ Mean Total Flux Muscle (mouse organs; Mouse 6, dose 0.5 mg/kg): 27.6 p/s (×10^6) | Organ Mean Total Flux Pancreas (mouse organs; Mouse 6, dose 0.5 mg/kg): 14.7 p/s (×10^6) | Organ Mean Total Flux Spleen (mouse organs; Mouse 6, dose 0.5 mg/kg): 28.7 p/s (×10^6) | Organ Mean Total Flux Femur (mouse organs; Mouse 9, dose 0.5 mg/kg): 13.3 p/s (×10^6) | Organ Mean Total Flux Heart (mouse organs; Mouse 9, dose 0.5 mg/kg): 1.2 p/s (×10^6) | Organ Mean Total Flux Kidney (mouse organs; Mouse 9, dose 0.5 mg/kg): 2.5 p/s (×10^6) | Organ Mean Total Flux Liver (mouse organs; Mouse 9, dose 0.5 mg/kg): 721.0 p/s (×10^6) | Organ Mean Total Flux Lung (mouse organs; Mouse 9, dose 0.5 mg/kg): 10.4 p/s (×10^6) | Organ Mean Total Flux Muscle (mouse organs; Mouse 9, dose 0.5 mg/kg): 31.2 p/s (×10^6) | Organ Mean Total Flux Pancreas (mouse organs; Mouse 9, dose 0.5 mg/kg): 10.2 p/s (×10^6) | Organ Mean Total Flux Spleen (mouse organs; Mouse 9, dose 0.5 mg/kg): 32.2 p/s (×10^6) | Organ Mean Total Flux Femur (mouse organs; Mouse 11, dose 0.5 mg/kg): 10.1 p/s (×10^6) | Organ Mean Total Flux Heart (mouse organs; Mouse 11, dose 0.5 mg/kg): 1.8 p/s (×10^6) | Organ Mean Total Flux Kidney (mouse organs; Mouse 11, dose 0.5 mg/kg): 0.9 p/s (×10^6) | Organ Mean Total Flux Liver (mouse organs; Mouse 11, dose 0.5 mg/kg): 360.7 p/s (×10^6) | Organ Mean Total Flux Lung (mouse organs; Mouse 11, dose 0.5 mg/kg): 25.4 p/s (×10^6) | Organ Mean Total Flux Muscle (mouse organs; Mouse 11, dose 0.5 mg/kg): 24.2 p/s (×10^6) | Organ Mean Total Flux Pancreas (mouse organs; Mouse 11, dose 0.5 mg/kg): 4.2 p/s (×10^6) | Organ Mean Total Flux Spleen (mouse organs; Mouse 11, dose 0.5 mg/kg): 26.2 p/s (×10^6) | Organ Mean Total Flux Femur (mouse organs; Mouse 12, dose 0.5 mg/kg): 9.3 p/s (×10^6) | Organ Mean Total Flux Heart (mouse organs; Mouse 12, dose 0.5 mg/kg): 1.8 p/s (×10^6) | Organ Mean Total Flux Kidney (mouse organs; Mouse 12, dose 0.5 mg/kg): 2.2 p/s (×10^6) | Organ Mean Total Flux Liver (mouse organs; Mouse 12, dose 0.5 mg/kg): 585.3 p/s (×10^6) | Organ Mean Total Flux Lung (mouse organs; Mouse 12, dose 0.5 mg/kg): 32.4 p/s (×10^6) | Organ Mean Total Flux Muscle (mouse organs; Mouse 12, dose 0.5 mg/kg): 35.5 p/s (×10^6) | Organ Mean Total Flux Pancreas (mouse organs; Mouse 12, dose 0.5 mg/kg): 3.5 p/s (×10^6) | Organ Mean Total Flux Spleen (mouse organs; Mouse 12, dose 0.5 mg/kg): 21.1 p/s (×10^6) | Organ Mean Total Flux Femur (mouse organs; Mouse 13, dose 0.5 mg/kg): 8.3 p/s (×10^6) | Organ Mean Total Flux Heart (mouse organs; Mouse 13, dose 0.5 mg/kg): 1.1 p/s (×10^6) | Organ Mean Total Flux Kidney (mouse organs; Mouse 13, dose 0.5 mg/kg): 5.7 p/s (×10^6) | Organ Mean Total Flux Liver (mouse organs; Mouse 13, dose 0.5 mg/kg): 439.7 p/s (×10^6) | Organ Mean Total Flux Lung (mouse organs; Mouse 13, dose 0.5 mg/kg): 16.8 p/s (×10^6) | Organ Mean Total Flux Muscle (mouse organs; Mouse 13, dose 0.5 mg/kg): 16.7 p/s (×10^6) | Organ Mean Total Flux Pancreas (mouse organs; Mouse 13, dose 0.5 mg/kg): 5.3 p/s (×10^6) | Organ Mean Total Flux Spleen (mouse organs; Mouse 13, dose 0.5 mg/kg): 19.7 p/s (×10^6) | Organ Mean Total Flux Femur (mouse organs; Mouse 14, dose 0.5 mg/kg): 10.8 p/s (×10^6) | Organ Mean Total Flux Heart (mouse organs; Mouse 14, dose 0.5 mg/kg): 2.0 p/s (×10^6) | Organ Mean Total Flux Kidney (mouse organs; Mouse 14, dose 0.5 mg/kg): 4.6 p/s (×10^6) | Organ Mean Total Flux Liver (mouse organs; Mouse 14, dose 0.5 mg/kg): 240.7 p/s (×10^6) | Organ Mean Total Flux Lung (mouse organs; Mouse 14, dose 0.5 mg/kg): 12.6 p/s (×10^6) | Organ Mean Total Flux Muscle (mouse organs; Mouse 14, dose 0.5 mg/kg): 41.1 p/s (×10^6) | Organ Mean Total Flux Pancreas (mouse organs; Mouse 14, dose 0.5 mg/kg): 7.6 p/s (×10^6) | Organ Mean Total Flux Spleen (mouse organs; Mouse 14, dose 0.5 mg/kg): 24.0 p/s (×10^6) | EE % [2, 3]: 99% | EE % [2, 4]: 96% | mRNA Content [2, 4]: 93 µg/mL | EE (%) N/P:6 ([2]; Formulation F1, N/P 6): 99% | EE (%) N/P:6 ([2]; Formulation F2, N/P 6): 99% | EE (%) N/P:6 ([2]; Formulation F3, N/P 6): 99% | EE (%) N/P:6 ([2]; Formulation F4, N/P 6): 98%
